In the supplement of paper PMC6045584 one finds surviving fraction data, which are given here for 8 test systems.

± gives the standard deviation of the averaged measurements.

Compound in one assay: COc1cc2c(cc1O)CC[C@@H]1[C@@H]2CC[C@]2(C)[C@@H](O)CC[C@@H]12 [2-METHOXYESTRADIOL]
Kind of assay: surviving fraction relative to DMSO-only wells; higher = less growth inhibition. The settings on record: exposure time: 5 days. Summed up:
(§1)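 Tumour cell lines were seeded in log phase at 250–500 cells per well into 384-well plates. Starting 24 hours later, inhibitors were present continuously for five days at 0.5, 1, 5, 10, 50, 100, 500 and 1000 nM. Surviving fraction, from CellTiter-Glo luminescence, is normalised to the median of DMSO-only wells. Three screens per line were required, with replicate Pearson r >0.7 and median Z' >0.3 for a line to be kept.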

Compound in a further assay: CC[C@@H](C(=O)[C@@H](C)[C@@H](O)[C@H](C)[C@@H]1O[C@@H]([C@@H](CC)C(=O)O)CC[C@@H]1C)[C@H]1O[C@]2(C=C[C@@H](O)[C@]3(CC[C@@](C)([C@H]4CC[C@](O)(CC)[C@H](C)O4)O3)O2)[C@H](C)C[C@@H]1C [SALINOMYCIN]
Described as above. The settings on record: exposure time: 5 days. Summed up: as §1

Consider G292 BONE, for which the surviving fraction with 2-METHOXYESTRADIOL (0.5 nM) was 0.988 ± 0.035; with 2-METHOXYESTRADIOL (1 nM) it was 0.956 ± 0.026; with 2-METHOXYESTRADIOL (5 nM) it was 1.04 ± 0.035; with 2-METHOXYESTRADIOL (10 nM), 0.994 ± 0.049; with 2-METHOXYESTRADIOL (50 nM), 0.982 ± 0.061; in the assay with 2-METHOXYESTRADIOL (100 nM), 0.919 ± 0.029. Besides, the surviving fraction turned out to be 0.39 ± 0.013 with 2-METHOXYESTRADIOL (500 nM); 0.234 ± 0.017 with 2-METHOXYESTRADIOL (1000 nM); 0.971 ± 0.016 with SALINOMYCIN (0.5 nM); 0.967 ± 0.055 with SALINOMYCIN (1 nM); 1 ± 0.086 in the assay with SALINOMYCIN (5 nM); 0.966 ± 0.046 with SALINOMYCIN (10 nM). Also, the surviving fraction is 0.932 ± 0.017 with SALINOMYCIN (50 nM), 0.828 ± 0.013 with SALINOMYCIN (100 nM), 0.204 ± 0.011 with SALINOMYCIN (500 nM) and 0.146 ± 0.0081 with SALINOMYCIN (1000 nM).
Turning to HCC70 BREAST, the surviving fraction in the assay with 2-METHOXYESTRADIOL (0.5 nM) was found to be 0.978 ± 0.05; in the assay with 2-METHOXYESTRADIOL (1 nM) it was 1.06 ± 0.064; with 2-METHOXYESTRADIOL (5 nM) it was 1.03 ± 0.062; in the assay with 2-METHOXYESTRADIOL (10 nM) it was 1.07 ± 0.016; with 2-METHOXYESTRADIOL (50 nM), 1.03 ± 0.14; with 2-METHOXYESTRADIOL (100 nM) it was 1.01 ± 0.1. The surviving fraction was determined as 0.629 ± 0.044 with 2-METHOXYESTRADIOL (500 nM); 0.212 ± 0.043 with 2-METHOXYESTRADIOL (1000 nM); 0.915 ± 0.055 with SALINOMYCIN (0.5 nM); 1.011 ± 0.0081 with SALINOMYCIN (1 nM); 1.02 ± 0.035 with SALINOMYCIN (5 nM); 0.973 ± 0.022 with SALINOMYCIN (10 nM). In addition, the surviving fraction amounted to 0.948 ± 0.11 with SALINOMYCIN (50 nM), 0.671 ± 0.061 with SALINOMYCIN (100 nM), 0.251 ± 0.011 with SALINOMYCIN (500 nM) and 0.147 ± 0.015 with SALINOMYCIN (1000 nM).
As for HS57T BREAST, the surviving fraction in the assay with 2-METHOXYESTRADIOL (0.5 nM) worked out at 0.919 ± 0.034; with 2-METHOXYESTRADIOL (1 nM), 0.879 ± 0.078; in the assay with 2-METHOXYESTRADIOL (5 nM), 0.95 ± 0.074; with 2-METHOXYESTRADIOL (10 nM), 0.965 ± 0.041; with 2-METHOXYESTRADIOL (50 nM), 0.936 ± 0.044; with 2-METHOXYESTRADIOL (100 nM), 0.901 ± 0.054. Also, the surviving fraction with 2-METHOXYESTRADIOL (500 nM) came to 0.326 ± 0.017; in the assay with 2-METHOXYESTRADIOL (1000 nM), 0.0817 ± 0.0051; with SALINOMYCIN (0.5 nM), 0.986 ± 0.077; with SALINOMYCIN (1 nM) it was 0.949 ± 0.062; with SALINOMYCIN (5 nM), 1.07 ± 0.057; in the assay with SALINOMYCIN (10 nM) it was 1.03 ± 0.042. Further, the surviving fraction was 1.03 ± 0.013 with SALINOMYCIN (50 nM), 0.813 ± 0.036 with SALINOMYCIN (100 nM), 0.28 ± 0.02 with SALINOMYCIN (500 nM) and 0.158 ± 0.011 with SALINOMYCIN (1000 nM).
For the test system HMT3552 BREAST, the surviving fraction with 2-METHOXYESTRADIOL (0.5 nM) amounted to 1.06 ± 0.034; in the assay with 2-METHOXYESTRADIOL (1 nM), 1.04 ± 0.09; in the assay with 2-METHOXYESTRADIOL (5 nM) it was 1.08 ± 0.013; in the assay with 2-METHOXYESTRADIOL (10 nM) it was 0.993 ± 0.015; in the assay with 2-METHOXYESTRADIOL (50 nM), 1.11 ± 0.029; with 2-METHOXYESTRADIOL (100 nM), 1.17 ± 0.066. Also, the surviving fraction in the assay with 2-METHOXYESTRADIOL (500 nM) was determined as 0.343 ± 0.025; with 2-METHOXYESTRADIOL (1000 nM), 0.126 ± 0.008; with SALINOMYCIN (0.5 nM), 1.07; with SALINOMYCIN (1 nM) it was 1; with SALINOMYCIN (5 nM) it was 1.07; with SALINOMYCIN (10 nM), 1.11. The surviving fraction with SALINOMYCIN (50 nM) was 1.13; with SALINOMYCIN (100 nM), 1.05; with SALINOMYCIN (500 nM), 0.801; in the assay with SALINOMYCIN (1000 nM), 0.728.
As for HS578T BREAST, the surviving fraction with 2-METHOXYESTRADIOL (0.5 nM) amounted to 0.859 ± 0.075; with 2-METHOXYESTRADIOL (1 nM) it was 0.947 ± 0.024; in the assay with 2-METHOXYESTRADIOL (5 nM) it was 0.946 ± 0.13; with 2-METHOXYESTRADIOL (10 nM) it was 0.917 ± 0.046; in the assay with 2-METHOXYESTRADIOL (50 nM), 1.05 ± 0.23; in the assay with 2-METHOXYESTRADIOL (100 nM), 1.16 ± 0.096. In addition, the surviving fraction was found to be 0.499 ± 0.08 in the assay with 2-METHOXYESTRADIOL (500 nM); 0.188 ± 0.0064 with 2-METHOXYESTRADIOL (1000 nM); 0.874 ± 0.12 in the assay with SALINOMYCIN (0.5 nM); 0.894 ± 0.036 with SALINOMYCIN (1 nM); 0.993 ± 0.16 with SALINOMYCIN (5 nM); 1.01 ± 0.11 in the assay with SALINOMYCIN (10 nM). The surviving fraction with SALINOMYCIN (50 nM) was determined as 1.05 ± 0.076; with SALINOMYCIN (100 nM), 0.826 ± 0.096; with SALINOMYCIN (500 nM), 0.589 ± 0.033; in the assay with SALINOMYCIN (1000 nM), 0.526 ± 0.041.
As for HCC38 BREAST, the surviving fraction with 2-METHOXYESTRADIOL (0.5 nM) was found to be 1.28 ± 0.069; with 2-METHOXYESTRADIOL (1 nM), 1.28 ± 0.15; in the assay with 2-METHOXYESTRADIOL (5 nM) it was 1.12 ± 0.26; in the assay with 2-METHOXYESTRADIOL (10 nM), 1.21 ± 0.18; with 2-METHOXYESTRADIOL (50 nM) it was 1.35 ± 0.15; with 2-METHOXYESTRADIOL (100 nM), 1.02 ± 0.36. Further, the surviving fraction with 2-METHOXYESTRADIOL (500 nM) came to 0.76 ± 0.074; in the assay with 2-METHOXYESTRADIOL (1000 nM), 0.349 ± 0.028; with SALINOMYCIN (0.5 nM) it was 1.26 ± 0.26; with SALINOMYCIN (1 nM) it was 1.14 ± 0.15; in the assay with SALINOMYCIN (5 nM), 1.3 ± 0.19; in the assay with SALINOMYCIN (10 nM), 1.26 ± 0.081. Moreover, the surviving fraction amounted to 1.05 ± 0.14 with SALINOMYCIN (50 nM), 0.862 ± 0.2 with SALINOMYCIN (100 nM), 0.415 ± 0.03 in the assay with SALINOMYCIN (500 nM) and 0.317 ± 0.052 with SALINOMYCIN (1000 nM).
For the test system HMLE3 BREAST, the surviving fraction came out at 0.913 ± 0.033 with 2-METHOXYESTRADIOL (0.5 nM); 0.964 ± 0.037 with 2-METHOXYESTRADIOL (1 nM); 0.991 ± 0.059 with 2-METHOXYESTRADIOL (5 nM); 1.05 ± 0.031 with 2-METHOXYESTRADIOL (10 nM); 0.987 ± 0.068 with 2-METHOXYESTRADIOL (50 nM); 0.887 ± 0.059 with 2-METHOXYESTRADIOL (100 nM). In addition, the surviving fraction turned out to be 0.937 ± 0.064 in the assay with 2-METHOXYESTRADIOL (500 nM); 0.602 ± 0.035 with 2-METHOXYESTRADIOL (1000 nM); 0.898 ± 0.036 in the assay with SALINOMYCIN (0.5 nM); 0.894 ± 0.1 with SALINOMYCIN (1 nM); 1.02 ± 0.028 with SALINOMYCIN (5 nM); 0.926 ± 0.09 in the assay with SALINOMYCIN (10 nM). Moreover, the surviving fraction is 1.19 ± 0.032 with SALINOMYCIN (50 nM), 0.988 ± 0.028 with SALINOMYCIN (100 nM), 0.056 ± 0.0095 with SALINOMYCIN (500 nM) and 0.0347 ± 0.0042 in the assay with SALINOMYCIN (1000 nM).
In the case of CCK81 LARGE INTESTINE, the surviving fraction is 0.764 ± 0.17 with 2-METHOXYESTRADIOL (0.5 nM); 0.801 ± 0.13 with 2-METHOXYESTRADIOL (1 nM); 0.773 ± 0.027 with 2-METHOXYESTRADIOL (5 nM); 0.752 ± 0.059 in the assay with 2-METHOXYESTRADIOL (10 nM); 0.776 ± 0.076 with 2-METHOXYESTRADIOL (50 nM); 0.779 ± 0.03 in the assay with 2-METHOXYESTRADIOL (100 nM). Moreover, the surviving fraction with 2-METHOXYESTRADIOL (500 nM) stood at 0.574 ± 0.076; with 2-METHOXYESTRADIOL (1000 nM), 0.249 ± 0.02.
